The text below walks through data of patent US20220073554A1, “LINCOSAMIDE ANTIBIOTICS AND USES THEREOF” (President and Fellows of Harvard College, priority 2017, published 2022).

≈ marks a conversion by molar mass, not a printed value. A value given as a limit tells only on which side of the number the result lay.

For orientation: MIC means the least concentration at which growth counts as inhibited.

The test system of one assay is E. faecalis MMX 847 Macrolide-Resistant. Nature of the assay: MIC against E. faecalis MMX 847 Macrolide-Resistant. Particulars: Enterococcus faecalis; E. faecalis MMX 847 MacRes; read-out: MIC. It is filed as cell-based.
In the case of `CSC1O[C@H]([C@H](NC(=O)[C@H]2NC[C@@H]3C[C@@H](c4cc(F)cc(F)c4)CCO[C@H]32)[C@H](C)Cl)C(O)[C@@H](O)[C@H]1O` (stereo partly shown) [FSA-511080], the MIC is more than 64 µg/mL.

The next assay concerns S. pneumoniae MMX 3031 cMefA. Nature of the assay: MIC against S. pneumoniae MMX 3031 cMefA. The class given is cell-based. Particulars: Streptococcus pneumoniae, MMX3031CMEFA.
As for `CSC1O[C@H]([C@H](NC(=O)[C@H]2NC[C@@H]3C[C@@H](c4cccc(F)c4)CCO[C@H]32)[C@H](C)Cl)C(O)[C@@H](O)[C@H]1O` (stereo partly shown) [FSA-511077], the minimal inhibitory concentration (MIC) was not above 0.06 µg/mL.

The molecule `CSC1O[C@H]([C@H](NC(=O)[C@H]2NC[C@@H]3C[C@@H](c4ccc(F)cc4F)CCO[C@H]32)[C@H](C)Cl)C(O)[C@@H](O)[C@H]1O` (stereo partly shown) [FSA-511078] yielded a minimal inhibitory concentration (MIC) not above 0.06 µg/mL.

In turn, `CSC1O[C@H]([C@H](NC(=O)[C@H]2NC[C@@H]3C[C@@H](c4cc(F)cc(F)c4)CCO[C@H]32)[C@H](C)Cl)C(O)[C@@H](O)[C@H]1O` (stereo partly shown) [FSA-511080] had an MIC not above 0.06 µg/mL.

The next assay concerns E. coli ATCC 15922. The experiment in a line: MIC against E. coli ATCC 15922. It is filed as cell-based. Particulars: Escherichia coli, ATCC15922; E. coli ATCC 15922; read-out: MIC.
With `CSC1O[C@H]([C@H](NC(=O)[C@H]2NC[C@@H]3C[C@@H](c4cccc(F)c4)CCO[C@H]32)[C@H](C)Cl)C(O)[C@@H](O)[C@H]1O` (stereo partly shown) [FSA-511077], the minimum inhibitory concentration (MIC) was more than 64 µg/mL.

In the case of `CSC1O[C@H]([C@H](NC(=O)[C@H]2NC[C@@H]3C[C@@H](c4ccc(F)cc4F)CCO[C@H]32)[C@H](C)Cl)C(O)[C@@H](O)[C@H]1O` (stereo partly shown) [FSA-511078], the MIC was more than 64 µg/mL.

On to `CSC1O[C@H]([C@H](NC(=O)[C@H]2NC[C@@H]3C[C@@H](c4cc(F)cc(F)c4)CCO[C@H]32)[C@H](C)Cl)C(O)[C@@H](O)[C@H]1O` (stereo partly shown) [FSA-511080], for which the minimum inhibitory concentration (MIC) is more than 64 µg/mL.

Another assay concerns S. aureus MMX 3035 cErmA. The experiment in a line: MIC against S. aureus MMX 3035 cErmA. The class given is cell-based. Particulars: Staphylococcus aureus, MMX3035CERMA; S. aureus MMX 3035 cErmA; read-out: MIC.
Regarding `CSC1O[C@H]([C@H](NC(=O)[C@H]2NC[C@@H]3C[C@@H](c4cccc(F)c4)CCO[C@H]32)[C@H](C)Cl)C(O)[C@@H](O)[C@H]1O` (stereo partly shown) [FSA-511077], the MIC was more than 64 µg/mL.

In the case of `CSC1O[C@H]([C@H](NC(=O)[C@H]2NC[C@@H]3C[C@@H](c4ccc(F)cc4F)CCO[C@H]32)[C@H](C)Cl)C(O)[C@@H](O)[C@H]1O` (stereo partly shown) [FSA-511078], the MIC was more than 64 µg/mL.

As for `CSC1O[C@H]([C@H](NC(=O)[C@H]2NC[C@@H]3C[C@@H](c4cc(F)cc(F)c4)CCO[C@H]32)[C@H](C)Cl)C(O)[C@@H](O)[C@H]1O` (stereo partly shown) [FSA-511080], the MIC was more than 64 µg/mL.

The next assay concerns S. pneumoniae MMX 3028 cErmB. The experiment in a line: MIC against S. pneumoniae MMX 3028 cErmB. It is filed as cell-based. Particulars: Streptococcus pneumoniae, MMX3028CERMB; S. pneumoniae MMX 3028 cErmB; read-out: MIC.
With `CSC1O[C@H]([C@H](NC(=O)[C@H]2NC[C@@H]3C[C@@H](c4cccc(F)c4)CCO[C@H]32)[C@H](C)Cl)C(O)[C@@H](O)[C@H]1O` (stereo partly shown) [FSA-511077], the minimum inhibitory concentration (MIC) was determined as 8 µg/mL (≈ 15 µM).

As to `CSC1O[C@H]([C@H](NC(=O)[C@H]2NC[C@@H]3C[C@@H](c4ccc(F)cc4F)CCO[C@H]32)[C@H](C)Cl)C(O)[C@@H](O)[C@H]1O` (stereo partly shown) [FSA-511078], the minimum inhibitory concentration (MIC) came to 4 µg/mL (≈ 7.26 µM).

Turning to `CSC1O[C@H]([C@H](NC(=O)[C@H]2NC[C@@H]3C[C@@H](c4cc(F)cc(F)c4)CCO[C@H]32)[C@H](C)Cl)C(O)[C@@H](O)[C@H]1O` (stereo partly shown) [FSA-511080], the minimal inhibitory concentration (MIC) amounted to 8 µg/mL (≈ 14.5 µM).

In the next assay the test system is S. aureus MP-549 msr(a) USA 300. The experiment in a line: MIC against S. aureus MP-549 msr(a) USA 300. It is filed as cell-based. Particulars: Staphylococcus aureus, USA300, S. aureus MP-549 msr(a) USA 300.
In the case of `CSC1O[C@H]([C@H](NC(=O)[C@H]2NC[C@@H]3C[C@@H](c4cccc(F)c4)CCO[C@H]32)[C@H](C)Cl)C(O)[C@@H](O)[C@H]1O` (stereo partly shown) [FSA-511077], the minimal inhibitory concentration (MIC) is 0.23 µg/mL (≈ 0.431 µM).

A further assay deals with K. pneumoniae ATCC 10031. The experiment in a line: MIC against K. pneumoniae ATCC 10031. It is filed as cell-based. Particulars: Klebsiella pneumoniae, ATCC10031; K. pneumoniae ATCC 10031; read-out: MIC.
Regarding `CSC1O[C@H]([C@H](NC(=O)[C@H]2NC[C@@H]3C[C@@H](c4cccc(F)c4)CCO[C@H]32)[C@H](C)Cl)C(O)[C@@H](O)[C@H]1O` (stereo partly shown) [FSA-511077], the MIC was 8 µg/mL (≈ 15 µM).

As for `CSC1O[C@H]([C@H](NC(=O)[C@H]2NC[C@@H]3C[C@@H](c4ccc(F)cc4F)CCO[C@H]32)[C@H](C)Cl)C(O)[C@@H](O)[C@H]1O` (stereo partly shown) [FSA-511078], the MIC was found to be 8 µg/mL (≈ 14.5 µM).

Another assay deals with S. pyogenes ATCC 19615. Nature of the assay: MIC against S. pyogenes ATCC 19615. The class given is cell-based. Particulars: Streptococcus pyogenes, ATCC19615; S. pyogenes ATCC 19615; read-out: MIC.
For `CSC1O[C@H]([C@H](NC(=O)[C@H]2NC[C@@H]3C[C@@H](c4cccc(F)c4)CCO[C@H]32)[C@H](C)Cl)C(O)[C@@H](O)[C@H]1O` (stereo partly shown) [FSA-511077], the MIC is not above 0.06 µg/mL.

For the molecule `CSC1O[C@H]([C@H](NC(=O)[C@H]2NC[C@@H]3C[C@@H](c4ccc(F)cc4F)CCO[C@H]32)[C@H](C)Cl)C(O)[C@@H](O)[C@H]1O` (stereo partly shown) [FSA-511078], the MIC was not above 0.06 µg/mL.

As to `CSC1O[C@H]([C@H](NC(=O)[C@H]2NC[C@@H]3C[C@@H](c4cc(F)cc(F)c4)CCO[C@H]32)[C@H](C)Cl)C(O)[C@@H](O)[C@H]1O` (stereo partly shown) [FSA-511080], the MIC was not above 0.06 µg/mL.

For another assay, the system named is E. coli MP-74 LptD mutant. Nature of the assay: MIC against E. coli MP-74 LptD mutant. The class given is cell-based. Particulars: Escherichia coli.
The molecule `CSC1O[C@H]([C@H](NC(=O)[C@H]2NC[C@@H]3C[C@@H](c4ccc(F)cc4F)CCO[C@H]32)[C@H](C)Cl)C(O)[C@@H](O)[C@H]1O` (stereo partly shown) [FSA-511078] gave a minimum inhibitory concentration (MIC) of 8 µg/mL (≈ 14.5 µM).

The test system of another assay is E. coli MP-9 ΔTolC. Nature of the assay: MIC against E. coli MP-9 ΔTolC. The class given is cell-based. Particulars: Escherichia coli.
Take `CSC1O[C@H]([C@H](NC(=O)[C@H]2NC[C@@H]3C[C@@H](c4cccc(F)c4)CCO[C@H]32)[C@H](C)Cl)C(O)[C@@H](O)[C@H]1O` (stereo partly shown) [FSA-511077]: the minimal inhibitory concentration (MIC) stood at 4 µg/mL (≈ 7.5 µM).

`CSC1O[C@H]([C@H](NC(=O)[C@H]2NC[C@@H]3C[C@@H](c4ccc(F)cc4F)CCO[C@H]32)[C@H](C)Cl)C(O)[C@@H](O)[C@H]1O` (stereo partly shown) [FSA-511078] yielded an MIC of 2 µg/mL (≈ 3.63 µM).

Molecule `CSC1O[C@H]([C@H](NC(=O)[C@H]2NC[C@@H]3C[C@@H](c4cc(F)cc(F)c4)CCO[C@H]32)[C@H](C)Cl)C(O)[C@@H](O)[C@H]1O` (stereo partly shown) [FSA-511080] gave a minimum inhibitory concentration (MIC) of 4 µg/mL (≈ 7.26 µM).

The subject of a further assay is E. faecalis ATCC 29212. Nature of the assay: MIC against E. faecalis ATCC 29212. The class given is cell-based. Particulars: Enterococcus faecalis, ATCC29212, read-out: MIC.
As to `CSC1O[C@H]([C@H](NC(=O)[C@H]2NC[C@@H]3C[C@@H](c4cccc(F)c4)CCO[C@H]32)[C@H](C)Cl)C(O)[C@@H](O)[C@H]1O` (stereo partly shown) [FSA-511077], the minimum inhibitory concentration (MIC) was 0.5 µg/mL (≈ 0.938 µM).

In the case of `CSC1O[C@H]([C@H](NC(=O)[C@H]2NC[C@@H]3C[C@@H](c4cc(F)cc(F)c4)CCO[C@H]32)[C@H](C)Cl)C(O)[C@@H](O)[C@H]1O` (stereo partly shown) [FSA-511080], the MIC came to 0.5 µg/mL (≈ 0.907 µM).

Another assay deals with S. pneumoniae ATCC 49619. Nature of the assay: MIC against S. pneumoniae ATCC 49619. The class given is cell-based. Particulars: Streptococcus pneumoniae, ATCC49619; S. pneumoniae ATCC 49619; read-out: MIC.
Regarding `CSC1O[C@H]([C@H](NC(=O)[C@H]2NC[C@@H]3C[C@@H](c4cccc(F)c4)CCO[C@H]32)[C@H](C)Cl)C(O)[C@@H](O)[C@H]1O` (stereo partly shown) [FSA-511077], the minimum inhibitory concentration (MIC) was not above 0.06 µg/mL.

In the case of `CSC1O[C@H]([C@H](NC(=O)[C@H]2NC[C@@H]3C[C@@H](c4ccc(F)cc4F)CCO[C@H]32)[C@H](C)Cl)C(O)[C@@H](O)[C@H]1O` (stereo partly shown) [FSA-511078], the minimum inhibitory concentration (MIC) was not above 0.06 µg/mL.

Regarding `CSC1O[C@H]([C@H](NC(=O)[C@H]2NC[C@@H]3C[C@@H](c4cc(F)cc(F)c4)CCO[C@H]32)[C@H](C)Cl)C(O)[C@@H](O)[C@H]1O` (stereo partly shown) [FSA-511080], the minimum inhibitory concentration (MIC) is not above 0.06 µg/mL.
